Read-outs that look alike come from different tables or passages of the source.
Assays:
Format in all cases: biochemical
[1] = target: T1, LATS1 (Homo sapiens, UniProt O95835); assay: RBC HotSpot kinase assay (33P-ATP, P81 filter-binding), LATS1
T1 sequence (O95835 1-1130): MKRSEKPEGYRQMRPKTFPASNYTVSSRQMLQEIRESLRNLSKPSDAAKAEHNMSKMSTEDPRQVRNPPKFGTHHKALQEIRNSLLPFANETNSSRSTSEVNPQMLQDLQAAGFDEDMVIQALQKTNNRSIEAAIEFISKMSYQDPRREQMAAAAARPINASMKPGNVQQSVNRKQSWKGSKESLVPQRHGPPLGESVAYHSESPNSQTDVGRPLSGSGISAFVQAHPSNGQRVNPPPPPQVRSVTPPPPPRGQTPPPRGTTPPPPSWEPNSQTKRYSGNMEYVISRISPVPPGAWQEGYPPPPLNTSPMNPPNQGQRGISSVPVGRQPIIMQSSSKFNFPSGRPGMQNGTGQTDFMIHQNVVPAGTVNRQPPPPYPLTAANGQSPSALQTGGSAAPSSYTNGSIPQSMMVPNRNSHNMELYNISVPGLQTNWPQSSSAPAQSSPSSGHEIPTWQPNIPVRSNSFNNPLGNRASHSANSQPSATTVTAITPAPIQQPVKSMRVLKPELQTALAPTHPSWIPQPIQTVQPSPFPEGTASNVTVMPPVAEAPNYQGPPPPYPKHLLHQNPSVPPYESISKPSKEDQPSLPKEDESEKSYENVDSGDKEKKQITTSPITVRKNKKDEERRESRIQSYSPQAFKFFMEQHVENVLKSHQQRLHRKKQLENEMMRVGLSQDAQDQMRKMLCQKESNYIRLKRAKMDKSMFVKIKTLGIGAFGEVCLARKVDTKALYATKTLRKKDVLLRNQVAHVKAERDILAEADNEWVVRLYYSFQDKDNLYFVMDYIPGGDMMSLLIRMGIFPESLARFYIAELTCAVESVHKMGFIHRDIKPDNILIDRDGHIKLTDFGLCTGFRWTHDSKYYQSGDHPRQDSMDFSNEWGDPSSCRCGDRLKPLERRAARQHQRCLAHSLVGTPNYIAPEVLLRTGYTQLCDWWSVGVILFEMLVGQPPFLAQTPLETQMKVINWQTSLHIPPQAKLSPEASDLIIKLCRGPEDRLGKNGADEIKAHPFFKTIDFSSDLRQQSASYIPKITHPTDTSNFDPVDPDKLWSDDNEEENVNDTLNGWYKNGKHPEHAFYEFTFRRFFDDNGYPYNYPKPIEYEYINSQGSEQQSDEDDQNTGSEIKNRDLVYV
In short: (§1)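 IC50 in nM was derived from 10-point, single-replicate titrations. Read-out was radiometric P81 filter binding following a 2 h room-temperature reaction with 33P-ATP, after 20 min compound preincubation.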

[2] = target: T2, LATS2 (Homo sapiens, UniProt Q9NRM7); assay: RBC HotSpot kinase assay (33P-ATP, P81 filter-binding), LATS2
T2 sequence (Q9NRM7 1-1088): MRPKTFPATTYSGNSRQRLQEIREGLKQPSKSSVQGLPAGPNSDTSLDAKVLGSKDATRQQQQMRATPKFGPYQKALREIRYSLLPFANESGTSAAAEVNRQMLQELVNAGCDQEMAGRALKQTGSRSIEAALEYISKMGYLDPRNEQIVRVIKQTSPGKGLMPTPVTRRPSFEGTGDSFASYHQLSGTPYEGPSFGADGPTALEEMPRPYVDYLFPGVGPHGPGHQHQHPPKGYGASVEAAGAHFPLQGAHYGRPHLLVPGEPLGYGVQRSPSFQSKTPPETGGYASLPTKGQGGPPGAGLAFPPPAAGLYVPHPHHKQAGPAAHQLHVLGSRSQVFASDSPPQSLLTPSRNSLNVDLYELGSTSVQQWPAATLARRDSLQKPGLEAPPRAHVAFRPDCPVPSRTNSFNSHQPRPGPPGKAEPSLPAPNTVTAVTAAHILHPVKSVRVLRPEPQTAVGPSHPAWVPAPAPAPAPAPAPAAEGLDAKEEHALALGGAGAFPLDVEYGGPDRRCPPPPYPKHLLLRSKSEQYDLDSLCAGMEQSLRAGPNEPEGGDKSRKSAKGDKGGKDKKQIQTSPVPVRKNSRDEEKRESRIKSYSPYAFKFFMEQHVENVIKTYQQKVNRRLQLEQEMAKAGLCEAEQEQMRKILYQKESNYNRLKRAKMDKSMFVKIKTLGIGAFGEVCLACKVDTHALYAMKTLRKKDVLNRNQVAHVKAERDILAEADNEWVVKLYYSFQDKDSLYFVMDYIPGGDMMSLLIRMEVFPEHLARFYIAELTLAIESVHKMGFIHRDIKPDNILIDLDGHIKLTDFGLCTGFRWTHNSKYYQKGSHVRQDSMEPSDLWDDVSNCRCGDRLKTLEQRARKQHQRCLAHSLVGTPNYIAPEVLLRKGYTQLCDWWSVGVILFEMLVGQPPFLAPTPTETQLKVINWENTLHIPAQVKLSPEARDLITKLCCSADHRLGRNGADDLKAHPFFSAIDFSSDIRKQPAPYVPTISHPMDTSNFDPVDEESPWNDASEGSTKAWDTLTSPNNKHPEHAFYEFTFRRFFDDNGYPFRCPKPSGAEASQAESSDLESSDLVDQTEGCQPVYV
In short: as §1

[3] = target: AKT (Homo sapiens, UniProt P31749); assay: RBC HotSpot kinase assay (33P-ATP, P81 filter-binding), AKT
In short: as §1

[4] = Table 28, biochemical kinase assay, read-out: LATS1 IC50
[5] = Table 28, biochemical kinase assay, read-out: LATS2 IC50
[6] = Table 28, biochemical kinase assay, read-out: AKT IC50

Sequence of AKT (P31749 whole entry): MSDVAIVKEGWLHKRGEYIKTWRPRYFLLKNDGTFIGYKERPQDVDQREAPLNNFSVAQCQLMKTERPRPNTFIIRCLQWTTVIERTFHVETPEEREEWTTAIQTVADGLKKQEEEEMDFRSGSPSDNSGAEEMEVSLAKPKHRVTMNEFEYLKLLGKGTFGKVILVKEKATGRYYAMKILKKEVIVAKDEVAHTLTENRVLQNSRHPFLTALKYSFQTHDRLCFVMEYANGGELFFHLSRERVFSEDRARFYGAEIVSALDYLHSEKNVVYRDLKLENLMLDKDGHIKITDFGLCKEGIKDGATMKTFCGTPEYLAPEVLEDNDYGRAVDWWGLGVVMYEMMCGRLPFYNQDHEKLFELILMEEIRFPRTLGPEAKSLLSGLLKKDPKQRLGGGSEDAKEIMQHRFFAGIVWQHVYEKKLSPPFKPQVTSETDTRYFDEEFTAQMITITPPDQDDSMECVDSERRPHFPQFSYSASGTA

Row | Compound | IC50 [1, 4] [nM] | IC50 [2, 5] [nM] | IC50 [3, 6] [nM] | IC50 [1] [nM] | IC50 [2] [nM] | IC50 [3] [nM]
1 | COc1cc(-c2ccnc3[nH]ccc23)ccc1C1CCNCC1 [Compound 180, 4-(3-methoxy-4-(piperidin-4-yl)phenyl)-1H-pyrrolo[2,3-b]pyridine] | 69 | 84 | 2570 |  |  | 
2 | Fc1cc(C2CCNCC2)ccc1-c1ccnc2[nH]ccc12 [Compound 181, 4-(2-fluoro-4-(piperidin-4-yl)phenyl)-1H-pyrrolo[2,3-b]pyridine] | 68 | 87 | 3360 |  |  | 
3 | CC1CNCCC1c1ccc(-c2ccnc3[nH]ccc23)cc1 (stereo not drawn) [Compound 185, 4-(4-(3-methylpiperidin-4-yl)phenyl)-1H-pyrrolo[2,3-b]pyridine] | 70 | 57 | 2110 |  |  | 
4 | c1cc(-c2ccc(C3CCNCC3)cc2)c2cc[nH]c2n1 [Compound 188, 4-(4-(piperidin-4-yl)phenyl)-1H-pyrrolo[2,3-b]pyridine] | 70 | 75 | 2200 |  |  | 
5 | Cc1nnc(C2(c3ccc(-c4ccnc5[nH]cc(F)c45)cc3)CCNCC2)o1 [Compound 190, 2-(4-(4-(3-fluoro-1H-pyrrolo[2,3-b]pyridin-4-yl)phenyl)piperidin-4-yl)-5-methyl-1,3,4-oxadiazole] | 20 | 17 | 18 |  |  | 
6 | Cc1cnc(C2(c3ccc(-c4ccnc5[nH]cc(F)c45)cc3)CCNCC2)o1 [Compound 192, 2-(4-(4-(3-fluoro-1H-pyrrolo[2,3-b]pyridin-4-yl)phenyl)piperidin-4-yl)-5-methyloxazole] | 29 | 20 | 25 |  |  | 
7 | COC(=O)C1(c2ccc(-c3ccnc4[nH]cc(F)c34)cc2)CCN(C)CC1 [Compound 193, Methyl 4-(4-(3-fluoro-1H-pyrrolo[2,3-b]pyridin-4-yl)phenyl)-1-methylpiperidine-4-carboxylate] |  |  |  | 53 | 26 | 128
8 | O=C(O)C1(c2ccc(-c3ccnc4[nH]cc(F)c34)cc2)CCNCC1 [Compound 194, 4-(4-(3-fluoro-1H-pyrrolo[2,3-b]pyridin-4-yl)phenyl)piperidine-4-carboxylic acid] | > 10000 | > 10000 | > 10000 |  |  | 
9 | CC(C)(C)OC(=O)N1CCC(c2ccc(-c3ccnc4[nH]cc(F)c34)cc2)(c2nnco2)CC1 [Compound 196, tert-butyl 4-(4-(3-fluoro-1H-pyrrolo[2,3-b]pyridin-4-yl)phenyl)-4-(1,3,4-oxadiazol-2-yl)piperidine-1-carboxylate] | > 10000 | > 10000 | > 10000 |  |  | 
10 | Fc1c[nH]c2nccc(-c3ccc(C4(C(F)(F)F)CCNCC4)cc3Cl)c12 [Compound 197, 4-(2-chloro-4-(4-(trifluoromethyl)piperidin-4-yl)phenyl)-3-fluoro-1H-pyrrolo[2,3-b]pyridine] | 424 | 195 | 85 |  |  | 
11 | COC(=O)C1(c2ccc(-c3ccnc4[nH]cc(F)c34)cc2Cl)CCNCC1 [Compound 198, methyl 4-(2-chloro-4-(3-fluoro-1H-pyrrolo[2,3-b]pyridin-4-yl)phenyl)piperidine-4-carboxylate] | 7.4 | 10 | 124 |  |  | 
12 | CC1(c2ccc(-c3ccnc4[nH]cc(F)c34)cc2Cl)CCNCC1 [Compound 200, 4-(3-chloro-4-(4-methylpiperidin-4-yl)phenyl)-3-fluoro-1H-pyrrolo[2,3-b]pyridine] | 34 | 20 | 12 |  |  | 
13 | Fc1ccccc1CNCc1ccc(-c2ccnc3[nH]ccc23)cc1 [Compound 204, N-(4-(1H-pyrrolo[2,3-b]pyridin-4-yl)benzyl)-1-(2-fluorophenyl)methanamine] | 15.9 | 33.1 | 1430 |  |  | 
14 | CC(C)(N)c1ccc(-c2ccnc3[nH]ccc23)cc1Cl [Compound 205, 2-(2-chloro-4-(1H-pyrrolo[2,3-b]pyridin-4-yl)phenyl)propan-2-amine] | 9.5 | 31.8 | 437 |  |  | 

Further compounds by falling IC50 [1, 4], results first:

Row | IC50 [1, 4] [nM] | IC50 [2, 5] [nM] | IC50 [3, 6] [nM] | Compound | IC50 [1] [nM] | IC50 [2] [nM] | IC50 [3] [nM]
15 | 5790 | 3520 | > 10000 | Cc1nnc(C2(c3ccc(-c4ccnc5[nH]cc(F)c45)cc3)CCN(C(=O)OC(C)(C)C)CC2)o1 [Compound 195, tert-butyl 4-(4-(3-fluoro-1H-pyrrolo[2,3-b]pyridin-4-yl)phenyl)-4-(5-methyl-1,3,4-oxadiazol-2-yl)piperidine-1-carboxylate] |  |  | 
16 | 1570 | 1770 | > 10000 | FC(F)(F)c1cc(C2CCNCC2)ccc1-c1ccnc2[nH]ccc12 [Compound 182, 4-(4-(piperidin-4-yl)-2-(trifluoromethyl)phenyl)-1H-pyrrolo[2,3-b]pyridine] |  |  | 
17 | 70.3 | 135 | 1380 | CC(C)(C)Nc1cc(-c2ccnc3[nH]ccc23)ccc1CN [Compound 203, 2-(aminomethyl)-N-(tert-butyl)-5-(1H-pyrrolo[2,3-b]pyridin-4-yl)aniline] |  |  | 
18 | 57 | 43 | 200 | Fc1c[nH]c2nccc(-c3ccc(C4(c5nnco5)CCNCC4)cc3)c12 [Compound 191, 2-(4-(4-(3-fluoro-1H-pyrrolo[2,3-b]pyridin-4-yl)phenyl)piperidin-4-yl)-1,3,4-oxadiazole] |  |  | 
19 | 38 | 34 | 463 | CCC1(c2ccc(-c3ccnc4[nH]cc(F)c34)cc2Cl)CCNCC1 [Compound 199, 4-(3-chloro-4-(4-ethylpiperidin-4-yl)phenyl)-3-fluoro-1H-pyrrolo[2,3-b]pyridine] |  |  | 
20 | 36 | 68 | 2050 | Fc1cnc2[nH]ccc2c1-c1ccc(C2CCNCC2)cc1 [Compound 186, 5-fluoro-4-(4-(piperidin-4-yl)phenyl)-1H-pyrrolo[2,3-b]pyridine] |  |  | 
21 | 17 | 7 | 743 | CC(C)c1cc(-c2ccnc3[nH]cc(-c4ccccc4)c23)ccc1CN [Compound 202, (2-isopropyl-4-(3-phenyl-1H-pyrrolo[2,3-b]pyridin-4-yl)phenyl)methanamine] |  |  | 
22 | 11 | 14 | 18 | Fc1c[nH]c2nccc(-c3ccc(C4(C(F)(F)F)CCNCC4)cc3)c12 [Compound 189, 3-fluoro-4-(4-(4-(trifluoromethyl)piperidin-4-yl)phenyl)-1H-pyrrolo[2,3-b]pyridine] |  |  | 

Source: US20250361230A1, “LATS Inhibitors and Uses Thereof” (The USA, as Represented by the Secretary, Dept. of Heath …, priority 2022, published 2025)
